We go through nine compounds from BindingDB's records for doi:10.1021/jm0704898 (Georgetown University Medical Center, 2007).

Experiment [1] has as its target T1, Suppressor of tumorigenicity 14 protein (Homo sapiens, UniProt Q9Y5Y6).
T1 sequence (Q9Y5Y6 whole entry): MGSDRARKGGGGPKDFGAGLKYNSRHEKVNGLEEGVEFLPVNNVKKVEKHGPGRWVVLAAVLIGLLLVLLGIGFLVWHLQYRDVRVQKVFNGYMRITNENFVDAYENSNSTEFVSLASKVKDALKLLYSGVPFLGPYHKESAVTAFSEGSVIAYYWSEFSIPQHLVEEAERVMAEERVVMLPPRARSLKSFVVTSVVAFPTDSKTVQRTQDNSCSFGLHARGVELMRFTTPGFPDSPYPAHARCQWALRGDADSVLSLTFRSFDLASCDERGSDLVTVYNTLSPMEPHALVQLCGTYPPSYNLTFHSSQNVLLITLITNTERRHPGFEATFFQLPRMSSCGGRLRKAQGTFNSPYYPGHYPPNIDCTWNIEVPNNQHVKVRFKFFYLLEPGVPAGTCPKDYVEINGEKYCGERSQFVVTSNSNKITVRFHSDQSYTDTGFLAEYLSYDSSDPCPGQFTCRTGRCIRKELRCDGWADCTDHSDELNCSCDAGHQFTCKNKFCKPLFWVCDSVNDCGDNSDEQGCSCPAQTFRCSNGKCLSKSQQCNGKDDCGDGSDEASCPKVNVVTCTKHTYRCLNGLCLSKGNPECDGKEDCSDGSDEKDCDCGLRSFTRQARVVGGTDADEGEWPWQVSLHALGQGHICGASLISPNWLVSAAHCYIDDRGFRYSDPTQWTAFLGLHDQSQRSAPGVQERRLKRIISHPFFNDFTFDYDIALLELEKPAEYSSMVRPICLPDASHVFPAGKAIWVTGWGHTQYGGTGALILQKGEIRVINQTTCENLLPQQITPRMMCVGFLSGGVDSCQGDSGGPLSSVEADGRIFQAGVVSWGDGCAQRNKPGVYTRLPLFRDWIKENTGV
Briefly: Enzyme Inhibition Assay. The conditions noted are these: pH 8.5; 22 °C. As to the method: (§1) The enzyme reaction was initiated by adding fluorescence peptide substrate to reaction mixture containing enzyme and test compounds. […] Hydrolysis rates were recorded in presence of six to seven different concentrations of inhibitor.

The target in the next experiment is Prothrombin (Bos taurus, UniProt P00735). Briefly: Enzyme Inhibition Assay. The following applies: pH 8.5; 22 °C. The procedure:
as §1

With `CC[C@H](C)[C@@H]1NC(=O)[C@@H]2CCCN2C(=O)[C@@H]2CCCN2C(=O)[C@H]([C@@H](C)CC)NC(=O)[C@H](CO)NC(=O)[C@H](CCCCN)NC(=O)[C@H]([C@@H](C)O)NC(=O)[C@@H]2CSSC[C@H](NC1=O)C(=O)N[C@@H](Cc1c(F)c(F)c(F)c(F)c1F)C(=O)N1CCC[C@H]1C(=O)N[C@@H](CC(=O)O)C(=O)NCC(=O)N[C@@H](CCCN=C(N)N)C(=O)N2`, the results for the Ki (in experiment [1]; on Prothrombin) were 0.89 µM and 33.6 µM, respectively. With `CC[C@H](C)[C@@H]1NC(=O)[C@@H]2CCCN2C(=O)[C@@H]2CCCN2C(=O)[C@H]([C@@H](C)CC)NC(=O)[C@H](CO)NC(=O)[C@H](CCCN)NC(=O)[C@H]([C@@H](C)O)NC(=O)[C@@H]2CSSC[C@H](NC1=O)C(=O)N[C@@H](Cc1ccccc1)C(=O)N1CCC[C@H]1C(=O)N[C@@H](CC(=O)O)C(=O)NCC(=O)N[C@@H](CCCN=C(N)N)C(=O)N2` [2-[(1R,4S,7S,13S,19S,22S,25S,28S,31R,34S,40S,43S,49S)-25-(3-aminopropyl)-49-benzyl-4,19-bis[(2S)-butan-2-yl]-34-(3-carbamimidamidopropyl)-28-[(1R)-1-hydroxyethyl]-22-(hydroxymethyl)-3,6,12,18,21,24,27,30,33,36,39,42,48,51-tetradecaoxo-53,54-dithia-2,5,11,17,20,23,26,29,32,35,38,41,47,50-tetradecaazapentacyclo[29.20.4.0^{7,11}.0^{13,17}.0^{43,47}]pentapentacontan-40-yl]acetic acid], the Ki (commonly a dissociation constant, usually derived from enzyme kinetics or from competition with a known ligand) in experiment [1] is above 250 µM.

For `CC[C@H](C)[C@@H]1NC(=O)[C@@H]2CCCN2C(=O)[C@@H]2CCCN2C(=O)[C@H]([C@@H](C)CC)NC(=O)[C@H](CO)NC(=O)[C@H](CCCCN)NC(=O)[C@H]([C@@H](C)O)NC(=O)[C@@H]2CSSC[C@H](NC1=O)C(=O)N[C@@H](Cc1ccc(-c3ccccc3)cc1)C(=O)N1CCC[C@H]1C(=O)N[C@@H](CC(=O)O)C(=O)NCC(=O)N[C@@H](CCCN=C(N)N)C(=O)N2` [2-[(1R,4S,7S,13S,19S,22S,25S,28S,31R,34S,40S,43S,49S)-25-(4-aminobutyl)-4,19-bis[(2S)-butan-2-yl]-34-(3-carbamimidamidopropyl)-28-[(1R)-1-hydroxyethyl]-22-(hydroxymethyl)-3,6,12,18,21,24,27,30,33,36,39,42,48,51-tetradecaoxo-49-[(4-phenylphenyl)methyl]-53,54-dithia-2,5,11,17,20,23,26,29,32,35,38,41,47,50-tetradecaazapentacyclo[29.20.4.0^{7,11}.0^{13,17}.0^{43,47}]pentapentacontan-40-yl]acetic acid], the Ki in experiment [1] stood at 1 µM; at Prothrombin it was 25.6 µM. With `CC[C@H](C)[C@@H]1NC(=O)[C@@H]2CCCN2C(=O)[C@@H]2CCCN2C(=O)[C@H]([C@@H](C)CC)NC(=O)[C@H](CO)NC(=O)[C@H](CCCCN)NC(=O)[C@H]([C@@H](C)O)NC(=O)[C@@H]2CSSC[C@H](NC1=O)C(=O)N[C@@H](Cc1ccc3ccccc3c1)C(=O)N1CCC[C@H]1C(=O)N[C@@H](CC(=O)O)C(=O)NCC(=O)N[C@@H](CCCN=C(N)N)C(=O)N2` [2-[(1R,4S,7S,13S,19S,22S,25S,28S,31R,34S,40S,43S,49S)-25-(4-aminobutyl)-4,19-bis[(2S)-butan-2-yl]-34-(3-carbamimidamidopropyl)-28-[(1R)-1-hydroxyethyl]-22-(hydroxymethyl)-49-(naphthalen-2-ylmethyl)-3,6,12,18,21,24,27,30,33,36,39,42,48,51-tetradecaoxo-53,54-dithia-2,5,11,17,20,23,26,29,32,35,38,41,47,50-tetradecaazapentacyclo[29.20.4.0^{7,11}.0^{13,17}.0^{43,47}]pentapentacontan-40-yl]acetic acid], the Ki in experiment [1] was found to be 0.45 µM; on Prothrombin, 16.3 µM. Take `CC[C@H](C)[C@@H]1NC(=O)[C@@H]2CCCN2C(=O)[C@@H]2CCCN2C(=O)[C@H]([C@@H](C)CC)NC(=O)[C@H](CO)NC(=O)[C@H](CCCCN)NC(=O)[C@H]([C@@H](C)O)NC(=O)[C@@H]2CSSC[C@H](NC1=O)C(=O)N[C@@H](Cc1ccccc1)C(=O)N1CCC[C@H]1C(=O)N[C@@H](CC(=O)O)C(=O)NCC(=O)N[C@@H](CCCNC(=N)N)C(=O)N2` [2-[(1R,4S,7S,13S,19S,22S,25S,28S,31R,34S,40S,43S,49S)-25-(4-aminobutyl)-49-benzyl-4,19-bis[(2S)-butan-2-yl]-34-(3-carbamimidamidopropyl)-28-[(1R)-1-hydroxyethyl]-22-(hydroxymethyl)-3,6,12,18,21,24,27,30,33,36,39,42,48,51-tetradecaoxo-53,54-dithia-2,5,11,17,20,23,26,29,32,35,38,41,47,50-tetradecaazapentacyclo[29.20.4.0^{7,11}.0^{13,17}.0^{43,47}]pentapentacontan-40-yl]acetic acid]: the affinity in experiment [1], expressed as Ki, was 0.1 µM. For the compound `CC[C@H](C)[C@@H]1NC(=O)[C@@H]2CCCN2C(=O)[C@@H]2CCCN2C(=O)[C@H]([C@@H](C)CC)NC(=O)[C@H](CO)NC(=O)[C@H](CCCCN)NC(=O)[C@H]([C@@H](C)O)NC(=O)[C@@H]2CSCSC[C@H](NC1=O)C(=O)N[C@@H](Cc1ccccc1)C(=O)N1CCC[C@H]1C(=O)N[C@@H](CC(=O)O)C(=O)NCC(=O)N[C@@H](CCCN=C(N)N)C(=O)N2` [2-[(1R,4S,7S,13S,19S,22S,25S,28S,31R,34S,40S,43S,49S)-25-(4-aminobutyl)-49-benzyl-4,19-bis[(2S)-butan-2-yl]-34-(3-carbamimidamidopropyl)-28-[(1R)-1-hydroxyethyl]-22-(hydroxymethyl)-3,6,12,18,21,24,27,30,33,36,39,42,48,51-tetradecaoxo-53,55-dithia-2,5,11,17,20,23,26,29,32,35,38,41,47,50-tetradecaazapentacyclo[29.20.5.0^{7,11}.0^{13,17}.0^{43,47}]hexapentacontan-40-yl]acetic acid], the figures for the Ki (in experiment [1]; on Prothrombin) were 0.16 µM and 10 µM, respectively. On the same counts, the results for `CC[C@H](C)[C@@H]1NC(=O)[C@@H]2CCCN2C(=O)[C@@H]2CCCN2C(=O)[C@H]([C@@H](C)CC)NC(=O)[C@H](CO)NC(=O)[C@H](CCCCN)NC(=O)[C@H]([C@@H](C)O)NC(=O)[C@@H]2CSSC[C@H](NC1=O)C(=O)N[C@@H](Cc1ccccc1)C(=O)N1CCC[C@H]1C(=O)N[C@@H](CC(=O)O)C(=O)NCC(=O)N[C@@H](CCCCN=C(N)N)C(=O)N2` [2-[(1R,4S,7S,13S,19S,22S,25S,28S,31R,34S,40S,43S,49S)-25-(4-aminobutyl)-49-benzyl-4,19-bis[(2S)-butan-2-yl]-34-(4-carbamimidamidobutyl)-28-[(1R)-1-hydroxyethyl]-22-(hydroxymethyl)-3,6,12,18,21,24,27,30,33,36,39,42,48,51-tetradecaoxo-53,54-dithia-2,5,11,17,20,23,26,29,32,35,38,41,47,50-tetradecaazapentacyclo[29.20.4.0^{7,11}.0^{13,17}.0^{43,47}]pentapentacontan-40-yl]acetic acid] are 0.857 µM and 7.63 µM.

Turning to `CC[C@H](C)[C@@H]1NC(=O)[C@@H]2CCCN2C(=O)[C@@H]2CCCN2C(=O)[C@H]([C@@H](C)CC)NC(=O)[C@H](CO)NC(=O)[C@H](CCCCN)NC(=O)[C@H]([C@@H](C)O)NC(=O)[C@@H]2CSSC[C@H](NC1=O)C(=O)N[C@@H](Cc1ccccc1)C(=O)N1CCC[C@H]1C(=O)N[C@@H](CC(=O)O)C(=O)NCC(=O)N[C@@H](CCCNC(N)=O)C(=O)N2` [2-[(1R,4S,7S,13S,19S,22S,25S,28S,31R,34S,40S,43S,49S)-25-(4-aminobutyl)-49-benzyl-4,19-bis[(2S)-butan-2-yl]-34-[3-(carbamoylamino)propyl]-28-[(1R)-1-hydroxyethyl]-22-(hydroxymethyl)-3,6,12,18,21,24,27,30,33,36,39,42,48,51-tetradecaoxo-53,54-dithia-2,5,11,17,20,23,26,29,32,35,38,41,47,50-tetradecaazapentacyclo[29.20.4.0^{7,11}.0^{13,17}.0^{43,47}]pentapentacontan-40-yl]acetic acid], the Ki in experiment [1] was found to be 22.5 µM; on Prothrombin, 827 µM. Consider `CC[C@H](C)[C@@H]1NC(=O)[C@@H]2CCCN2C(=O)[C@@H]2CCCN2C(=O)[C@H]([C@@H](C)CC)NC(=O)[C@H](CO)NC(=O)[C@H](CCCCN)NC(=O)[C@H]([C@@H](C)O)NC(=O)[C@@H]2CCSSC[C@H](NC1=O)C(=O)N[C@@H](Cc1ccccc1)C(=O)N1CCC[C@H]1C(=O)N[C@@H](CC(=O)O)C(=O)NCC(=O)N[C@@H](CCCN=C(N)N)C(=O)N2` [2-[(1R,4S,7S,13S,19S,22S,25S,28S,31S,34S,40S,43S,49S)-25-(4-aminobutyl)-49-benzyl-4,19-bis[(2S)-butan-2-yl]-34-(3-carbamimidamidopropyl)-28-[(1R)-1-hydroxyethyl]-22-(hydroxymethyl)-3,6,12,18,21,24,27,30,33,36,39,42,48,51-tetradecaoxo-53,54-dithia-2,5,11,17,20,23,26,29,32,35,38,41,47,50-tetradecaazapentacyclo[29.20.5.0^{7,11}.0^{13,17}.0^{43,47}]hexapentacontan-40-yl]acetic acid], for which the affinity in experiment [1] corresponds to a Ki of 0.38 µM.
